PubChem BioAssay (NCI)
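At the GI50, growth is halved. Definition used: TGI = concentration required for complete inhibition of growth.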

Assays:
Test in all cases: DTP human tumour cell line panel, 384-well format
SK-OV-3 ovarian = tested on: SK-OV-3 ovarian
HL-60(TB) leukemia = tested on: HL-60(TB) leukemia
NCI-H226 lung = tested on: NCI-H226 lung
SF-295 CNS = tested on: SF-295 CNS
MALME-3M melanoma = tested on: MALME-3M melanoma
786-0 renal = tested on: 786-0 renal
SK-MEL-2 melanoma = tested on: SK-MEL-2 melanoma
NCI-H460 NSCLC = tested on: NCI-H460 NSCLC
TK-10 renal = tested on: TK-10 renal
OVCAR-3 ovarian = tested on: OVCAR-3 ovarian
BT-549 breast = tested on: BT-549 breast
SW-620 colon = tested on: SW-620 colon
OVCAR-4 ovarian = tested on: OVCAR-4 ovarian
SN12C renal = tested on: SN12C renal
UACC-62 melanoma = tested on: UACC-62 melanoma
SNB-75 CNS = tested on: SNB-75 CNS
SNB-19 CNS = tested on: SNB-19 CNS
SR leukemia = tested on: SR leukemia
COLO 205 colon = tested on: COLO 205 colon
RXF 393 renal = tested on: RXF 393 renal
NCI-H322M lung = tested on: NCI-H322M lung
ACHN renal = tested on: ACHN renal
HT29 colon = tested on: HT29 colon
SF-268 CNS = tested on: SF-268 CNS
A498 renal = tested on: A498 renal
HCT-15 colon = tested on: HCT-15 colon
MDA-MB-435 melanoma = tested on: MDA-MB-435 melanoma
HOP-92 NSCLC = tested on: HOP-92 NSCLC
SK-MEL-5 melanoma = tested on: SK-MEL-5 melanoma
K-562 leukemia = tested on: K-562 leukemia
NCI-H522 lung = tested on: NCI-H522 lung
CAKI-1 renal = tested on: CAKI-1 renal
MDA-MB-468 breast = tested on: MDA-MB-468 breast
IGROV1 ovarian = tested on: IGROV1 ovarian
U251 glioblastoma = tested on: U251 glioblastoma
HCT-116 colon = tested on: HCT-116 colon
PC-3 prostate = tested on: PC-3 prostate
A549 NSCLC = tested on: A549 NSCLC
MOLT-4 leukemia = tested on: MOLT-4 leukemia
MDA-MB-231 breast = tested on: MDA-MB-231 breast
UACC-257 melanoma = tested on: UACC-257 melanoma
NCI-H23 lung = tested on: NCI-H23 lung
EKVX NSCLC = tested on: EKVX NSCLC
M14 melanoma = tested on: M14 melanoma
SK-MEL-28 melanoma = tested on: SK-MEL-28 melanoma
DU-145 prostate = tested on: DU-145 prostate
KM12 colon = tested on: KM12 colon
SF-539 CNS = tested on: SF-539 CNS
HOP-62 NSCLC = tested on: HOP-62 NSCLC
OVCAR-5 ovarian = tested on: OVCAR-5 ovarian
MCF7 breast = tested on: MCF7 breast
UO-31 renal = tested on: UO-31 renal
OVCAR-8 ovarian = tested on: OVCAR-8 ovarian
HS 578T breast = tested on: HS 578T breast
T-47D breast = tested on: T-47D breast

CC(C)[C@@H](CS(=O)(=O)C(C)C)N1C(=O)[C@@](C)(CC(=O)O)C[C@H](c2cccc(Cl)c2)[C@H]1c1ccc(Cl)cc1
GI50 (SK-OV-3 ovarian): 24 µM | TGI (SK-OV-3 ovarian): 80.2 µM | GI50 (HL-60(TB) leukemia): 17.3 µM | TGI (HL-60(TB) leukemia): 31.2 µM | GI50 (NCI-H226 lung): 0.148 µM | TGI (NCI-H226 lung): 0.324 µM | GI50 (SF-295 CNS): 14.7 µM | TGI (SF-295 CNS): 38.7 µM | GI50 (MALME-3M melanoma): 0.45 µM | TGI (MALME-3M melanoma): 19.8 µM | GI50 ([…]-0 renal): 36.5 µM | TGI (786-0 renal): > 100 µM | GI50 (SK-MEL-2 melanoma): 19.1 µM | TGI (SK-MEL-2 melanoma): 34.6 µM | GI50 (NCI-H460 NSCLC): 29.3 µM | TGI (NCI-H460 NSCLC): > 100 µM | GI50 (TK-10 renal): 35.2 µM | TGI (TK-10 renal): > 100 µM | GI50 (OVCAR-3 ovarian): 14.5 µM | TGI (OVCAR-3 ovarian): 29.7 µM | GI50 (BT-549 breast): 17.5 µM | TGI (BT-549 breast): 34.4 µM | GI50 (SW-620 colon): 37 µM | TGI (SW-620 colon): > 100 µM | GI50 (OVCAR-4 ovarian): 18.3 µM | TGI (OVCAR-4 ovarian): > 100 µM | GI50 (SN12C renal): 32.1 µM | TGI (SN12C renal): > 100 µM | GI50 (UACC-62 melanoma): 0.151 µM | TGI (UACC-62 melanoma): 12.8 µM | GI50 (SNB-75 CNS): 26.1 µM | TGI (SNB-75 CNS): > 100 µM | GI50 (SNB-19 CNS): 41.7 µM | TGI (SNB-19 CNS): > 100 µM | GI50 (SR leukemia): 0.053 µM | TGI (SR leukemia): 0.187 µM | GI50 (COLO 205 colon): 52.4 µM | TGI (COLO 205 colon): > 100 µM | GI50 (RXF 393 renal): 13.1 µM | TGI (RXF 393 renal): 36 µM | GI50 (NCI-H322M lung): 37.1 µM | TGI (NCI-H322M lung): 94.1 µM | GI50 (ACHN renal): 0.228 µM | TGI (ACHN renal): 0.949 µM | GI50 (HT29 colon): 37 µM | TGI (HT29 colon): > 100 µM | GI50 (SF-268 CNS): 28.9 µM | TGI (SF-268 CNS): > 100 µM | GI50 (A498 renal): 0.295 µM | TGI (A498 renal): 11.3 µM | GI50 (HCT-15 colon): 26.4 µM | TGI (HCT-15 colon): 78.3 µM | GI50 (MDA-MB-435 melanoma): 20.7 µM | TGI (MDA-MB-435 melanoma): 46 µM | GI50 (HOP-92 NSCLC): 17.7 µM | TGI (HOP-92 NSCLC): 40.4 µM | GI50 (SK-MEL-5 melanoma): 0.994 µM | TGI (SK-MEL-5 melanoma): 15 µM | GI50 (K-562 leukemia): 20.6 µM | TGI (K-562 leukemia): > 100 µM | GI50 (NCI-H522 lung): 20.1 µM | TGI (NCI-H522 lung): 49.3 µM | GI50 (CAKI-1 renal): 0.204 µM | TGI (CAKI-1 renal): 13.1 µM | GI50 (MDA-MB-468 breast): 6.07 µM | TGI (MDA-MB-468 breast): 22.2 µM | GI50 (IGROV1 ovarian): 12.1 µM | TGI (IGROV1 ovarian): > 100 µM | GI50 (U251 glioblastoma): 15.5 µM | TGI (U251 glioblastoma): 37.8 µM | GI50 (HCT-116 colon): 0.334 µM | TGI (HCT-116 colon): 15.1 µM | GI50 (PC-3 prostate): 14 µM | TGI (PC-3 prostate): 62.7 µM | GI50 (A549 NSCLC): 0.433 µM | TGI (A549 NSCLC): 13 µM | GI50 (MOLT-4 leukemia): 0.117 µM | TGI (MOLT-4 leukemia): 0.246 µM | GI50 (MDA-MB-231 breast): 20.5 µM | TGI (MDA-MB-231 breast): > 100 µM | GI50 (UACC-257 melanoma): 0.203 µM | TGI (UACC-257 melanoma): 0.671 µM | GI50 (NCI-H23 lung): 14.6 µM | TGI (NCI-H23 lung): 36.9 µM | GI50 (EKVX NSCLC): 18.9 µM | TGI (EKVX NSCLC): 51.5 µM | GI50 (M14 melanoma): 13.5 µM | TGI (M14 melanoma): 37.5 µM | GI50 (SK-MEL-28 melanoma): 42.5 µM | TGI (SK-MEL-28 melanoma): > 100 µM | GI50 (DU-145 prostate): 27.2 µM | TGI (DU-145 prostate): > 100 µM | GI50 (KM12 colon): 0.319 µM | TGI (KM12 colon): 10 µM | GI50 (SF-539 CNS): 16.5 µM | TGI (SF-539 CNS): 35.2 µM | GI50 (HOP-62 NSCLC): 21.5 µM | TGI (HOP-62 NSCLC): 51.1 µM | GI50 (OVCAR-5 ovarian): 38 µM | TGI (OVCAR-5 ovarian): > 100 µM | GI50 (MCF7 breast): 0.157 µM | TGI (MCF7 breast): 0.573 µM | GI50 (UO-31 renal): 0.199 µM | TGI (UO-31 renal): 0.445 µM | GI50 (OVCAR-8 ovarian): 21.1 µM | TGI (OVCAR-8 ovarian): 92.3 µM | GI50 (HS 578T breast): 15.5 µM | TGI (HS 578T breast): 32.8 µM | GI50 (T-47D breast): 23.3 µM | TGI (T-47D breast): 73.2 µM
